target: T1, Serine-threonine protein phosphatase 2A regulatory subunit (Gallus gallus, UniProt Q8AWE3); assay: Inhibitory concentration required against protein phosphatase 2A using pNPP assay
T1 sequence (Q8AWE3 whole entry): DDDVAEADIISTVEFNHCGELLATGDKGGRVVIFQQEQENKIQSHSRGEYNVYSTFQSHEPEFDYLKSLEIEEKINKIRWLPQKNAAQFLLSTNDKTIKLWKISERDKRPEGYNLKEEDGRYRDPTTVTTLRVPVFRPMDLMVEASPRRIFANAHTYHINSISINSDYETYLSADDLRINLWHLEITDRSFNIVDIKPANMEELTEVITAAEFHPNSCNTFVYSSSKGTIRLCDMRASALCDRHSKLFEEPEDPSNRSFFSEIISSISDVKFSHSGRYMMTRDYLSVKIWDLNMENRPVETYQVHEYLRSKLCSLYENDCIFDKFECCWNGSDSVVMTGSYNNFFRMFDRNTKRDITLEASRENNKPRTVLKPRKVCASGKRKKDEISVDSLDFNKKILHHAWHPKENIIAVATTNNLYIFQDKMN

Row | SMILES | IC50 [µM]
1 | CO[C@@H](Cc1ccccc1)[C@@H](C)/C=C(C)/C=C/[C@H](NC(C)=O)[C@H](C)C(=O)N[C@H](CCC(=O)N(C)CC(=O)N[C@H](C)C(=O)O)C(=O)O | 135
2 | C=C(C(=O)N[C@H](C)C(=O)N[C@@H](CC(C)C)C(=O)O)N(C)C(=O)CC[C@@H](NC(=O)[C@@H](C)[C@H](/C=C/C(C)=C/[C@H](C)[C@H](Cc1ccccc1)OC)NC(C)=O)C(=O)O | 16
3 | CO[C@@H](Cc1ccccc1)[C@@H](C)/C=C(C)/C=C/[C@H](NC(C)=O)[C@H](C)C(=O)N[C@H](CCC(=O)N(C)CC(=O)N[C@H](C)C(=O)N[C@@H](CC(C)C)C(=O)O)C(=O)O | 17
4 | COC(=O)[C@@H](CCC(=O)N(C)C)NC(=O)[C@@H](C)[C@H](/C=C/C(C)=C/[C@H](C)[C@H](Cc1ccccc1)OC)NC(C)=O | > 100
5 | CO[C@@H](Cc1ccccc1)[C@@H](C)/C=C(C)/C=C/[C@H](NC(C)=O)[C@H](C)C(=O)N[C@H](CCC(=O)N(C)C)C(=O)O | 20
6 | CO[C@@H](Cc1ccccc1)[C@@H](C)/C=C(C)/C=C/[C@H](N)[C@H](C)C(=O)N[C@H](CCC(=O)N(C)CC(=O)N[C@H](C)C(=O)O)C(=O)O | 270
